Measured values taken from ChEMBL document CHEMBL1131124, “Selective inhibitors of human lactate dehydrogenases and lactate dehydrogenase from the malarial parasite Plasmodium falciparum” (J Med Chem, 1998).

Target: L-lactate dehydrogenase B chain (Homo sapiens, UniProt P07195)
Sequence (P07195 whole entry): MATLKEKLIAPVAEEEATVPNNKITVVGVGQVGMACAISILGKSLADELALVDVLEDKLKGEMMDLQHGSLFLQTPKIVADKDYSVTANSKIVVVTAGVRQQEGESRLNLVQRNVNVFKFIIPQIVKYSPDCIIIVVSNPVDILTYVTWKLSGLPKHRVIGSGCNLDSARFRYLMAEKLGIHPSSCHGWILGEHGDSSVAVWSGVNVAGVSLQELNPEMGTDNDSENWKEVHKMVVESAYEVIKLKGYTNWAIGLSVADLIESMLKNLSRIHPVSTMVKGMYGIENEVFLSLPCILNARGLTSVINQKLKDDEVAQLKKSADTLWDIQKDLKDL
Description: inhibitory activity against Human Lactate Dehydrogenase (LDH-H)

Structure (SMILES)	Ki
CCCc1c(O)c(O)c(C(=O)O)c2cc(Cc3ccccc3)c(C)cc12	1 µM
Cc1cc2c(C(C)C)c(O)c(O)c(C(=O)O)c2cc1Cc1ccccc1	7 µM
CCCc1c(O)c(O)c(C(=O)O)c2ccc(C)cc12	49 µM
